Values of other authors in patent publication US12427145B2, “Controlled release pharmaceutical composition of Selexipag or it's active metabolite” (Innovate Therapeutics LLC, priority 2019, dated 2025).
Where two headings read alike, the source gives them in different places.

Key:
[1] = fasting condition
[2] = study AC-065A303, 52 subjects out of 218 subjects
[3] = oral immediate release dosage form, out of 575 subjects

subjects reporting Headache ([1]; 200 μg Selexipag, 1 out of 6 subjects): 17%
subjects reporting Headache ([1]; 600 μg Selexipag, 2 out of 6 subjects): 33%
subjects reporting Headache ([1]; 800 μg Selexipag, 5 out of 6 subjects): 83%
Arthralgia, subjects [3]: 11%
Diarrhea, subjects [3]: 42%
Flushing, subjects [3]: 12%
Headache, subjects [3]: 65%
Jaw pain, subjects [3]: 26%
Myalgia, subjects [3]: 16%
Nausea, subjects [3]: 33%
Pain in Extremity, subjects [3]: 17%
Rash, subjects [3]: 11%
Vomiting, subjects [3]: 18%
Structure (SMILES): CC(C)N(CCCCOCC(=O)NS(C)(=O)=O)c1cnc(-c2ccccc2)c(-c2ccccc2)n1 [Selexipag]
subjects with at least 1 adverse event leading to discontinuation of study drug [2]: 24%
